Ends that are not written are not given here.
How the values were obtained:
[1] = test system: Snord116+/− (Het) mice and wild-type (WT) littermates; assay: Food intake after acute administration in Prader-Willi mouse model; type: in vivo; details: cabergoline 0.5 mg/kg single i.p., fasted 16 hours
Description: The effect of HM04 fumarate salt on food intake behavior and glucose tolerance was investigated in the Snord116+/−(Het) mouse genetic model of Prader-Willi syndrome (Het mouse) compared to wild-type (WT) littermates. Since D2R agonists suppress food intake, the FDA approved D2R agonist cabergoline was used as an experimental control. Phenotypic characteristics of this PWS mouse model include hyperphagia, postnatal growth retardation, high ghrelin, and low growth hormone. Ding F., et al. SnoRNA Snord116 (Pwcr1/MBII-85) deletion causes growth deficiency and hyperphagia in mice. PloS one. 2008; 3(3):e1709. These PWS mice eat more frequently than WT littermates, particularly during the light cycle and are more motivated to work for food (more level presses) (data not shown).
Acute administration: Mice (3-, 7-, and 12-month-old) were fasted for 16 hours and then administered a single intraperitoneal injection of vehicle or vehicle containing HM04, cabergoline, or HM04 and cabergoline according to Table 8, below.
HM04 was dissolved in water for injection and cabergoline was dissolved in DMSO to provide a 5% DMSO/water solution for injection. Mice were then given free access to food, and cumulative food intake was measured at 1, 2, 4, 8, 12, and 24 hours post-dosing. […] Data was analyzed for significance using 2-way ANOVA, Bonferroni post hoc test (Graphpad Prism, Prism 5.0, San Diego, Calif.).

[2] = Estimated aqueous solubility; type: physicochemical; details: aqueous (water)
[3] = Dog pharmacokinetic study, HM04 free base vs HM04 fumarate salt (Example 9); type: in vivo, male Beagle dogs
Procedure: The pharmacokinetics of HM04 in plasma of male Beagle dogs dosed with a single oral administration of 2 mg/kg HM04 formulated in a solution of 10% DMAC, 6% Solutol, and 84% PBS using either the HM04 free base or HM04 fumarate salt were compared. A comparison of the plasma concentration of HM04 (ng/mL) over time in dogs dosed orally with HM04 free base and HM04 fumarate salt is provided in FIG. 18. Bioavailability was calculated from a dose normalized ratio of the oral mean AUC to the intravenous mean AUC (AUCpo/AUCiv×Doseiv/Dosepo).

[4] = GVS analysis (hygroscopicity); type: physicochemical
Procedure: For the GVS analysis, 15-20 mg of sample was loaded into an IgaSorp vapour sorption balance (Hiden Analytical Instruments). The sample was then dried by maintaining a 0% humidity environment until no further weight change was recorded. The sample was then subjected to a ramping profile from 0 to 90% RH at 10% RH increments, maintaining the sample at each step until equilibration had been attained (99% step completion). Upon reaching equilibrium, the % RH within the apparatus was ramped to the next step and the equilibration procedure repeated. After completion of the sorption cycle, the sample was dried using the same procedure. The weight change during the sorption/desorption cycles were then monitored, allowing for the hygroscopic nature of the sample to be determined.

[5] = Rat pharmacokinetic study, HM04 free base vs HM04 fumarate salt (Example 9); type: in vivo, male Sprague Dawley rats
[6] = Dog pharmacokinetic study, HM04 free base vs HM04 fumarate salt (Example 9); type: in vivo, male Beagle dogs; remark: listed apart in the source
[7] = Rat pharmacokinetic study, HM04 free base vs HM04 fumarate salt (Example 9); type: in vivo, male Sprague Dawley rats; details: 3 mg/kg oral
Procedure: The pharmacokinetics of HM04 in plasma of male Sprague Dawley rats dosed with a single oral administration of 3 mg/kg HM04 (based on the weight of the free base) formulated in a solution of 10% DMAC, 6% Solutol, and 84% PBS using either the HM04 free base or HM04 fumarate salt were compared. Blood samples were withdrawn at set time intervals and plasma concentration of HM04 was measured by LC-MS/MS. A comparison of the plasma concentration of HM04 (ng/mL) over time in rats dosed orally with HM04 free base and HM04 fumarate salt is provided in FIG. 17.

[8] = test system: ghrelin-induced increase of GH; assay: Ghrelin-induced increase of growth hormone in rats; type: in vivo; details: after 15 μg/kg ghrelin i.v.
Procedure: Rats were divided into four groups: 1) 1 ml/kg saline plus 10 ml/kg 0.5% CMC p.o. (n=6); 2) 15 μg/kg ghrelin i.v. plus 10 ml/kg 0.5% CMC p.o. (n=6); 3) 30 mg/kg HM04 fumarate salt p.o. 2 hours before 15 μg/kg ghrelin i.v. (n=6); 4) 10 mg/kg ghrelin antagonist R011 i.p. 30 minutes before 15 μg/kg ghrelin i.v. (n=6). Blood was collected as 100 μl samples at time 0 and at 15 minutes after ghrelin injection. Rats were anesthetized with 64.8 mg/kg sodium pentobarbital. A catheter filled with heparinized saline solution was inserted in the left femoral artery for blood collection and fitted with an extension tube, 1-mL sampling syringe, and a 3-way cock to allow excess blood to return.
Plasma levels of growth hormone (GH) were determined using Rat GH ELISA (Millipore, Catalog No. EZRMGH-45K). Measurements were performed in duplicate. […] One-way and two-way ANOVA test was used to compare differences between groups. All values are presented as mean±SEM. One-way ANOVA was performed followed by Turkey's post hoc test where significance was indicated by p values<0.05 or p values<0.01.

[9] = male, Beagle, plasma, 2 mg/kg oral, mean ± S.D., n=3
[10] = male, Sprague Dawley, plasma, mean ± S.D., n=3

C=CCN1C[C@H](C(=O)N(CCCN(C)C)C(=O)NCC)C[C@@H]2c3cccc4[nH]cc(c34)C[C@H]21 [Cabergoline, cabergoline, reference compound]
cumulative food intake ([1]; 7-month-old Het mice): inhibited food intake
cumulative food intake ([1]; 7-month-old WT mice): inhibited food intake

CN1CCC(N(C)C(=O)N[C@H](c2ccc(-c3cnccn3)c(Cl)c2Cl)C(F)(F)F)CC1 [HM04 free base, (R)-3-(1-(2,3-dichloro-4-(pyrazin-2-yl)phenyl)-2,2,2-trifluoroethyl)-1-methyl-1-(1-methylpiperidin-4-yl) Urea]
solubility [2]: < 2000 µg/mL
HM04 plasma concentration ([3]; 2 mg/kg oral, 0.25 hours, mean ± S.D., n=3): 8.94 ± 5.56 ng/mL
HM04 plasma concentration ([3]; 2 mg/kg oral, 0.50 hours, mean ± S.D., n=3): 49.40 ± 7.72 ng/mL
HM04 plasma concentration ([3]; 2 mg/kg oral, 2 hours, mean ± S.D., n=3): 74.05 ± 3.77 ng/mL
bioavailability ([3]; male, Beagle, plasma, 2 mg/kg oral vs 1 mg/kg intravenous, dose normalized AUC ratio): 59.4 ± 9.11%
AUC(0-t) [3, 9]: 929 ± 142 ng·h/mL
Cmax [3, 9]: 74 ± 3.77 ng/mL
Tmax [3, 9]: 2 h
hygroscopicity (GVS) [4]: slightly hygroscopic
weight gain (GVS) ([4]; up to 70% relative humidity (RH)): approximately 1.5%
weight gain (GVS) ([4]; up to 80% RH): approximately 2%
HM04 plasma concentration ([5]; 3 mg/kg oral, 0.25 hours, mean ± S.D., n=3): 24.2 ± 6.6 ng/mL
HM04 plasma concentration ([5]; 3 mg/kg oral, 4 hours, mean ± S.D., n=3): 25.0 ± 13.0 ng/mL
AUC ([5]; male, Sprague Dawley, plasma, 3 mg/kg intravenous, three rats, read-out: mean AUC following intravenous administration): 990 ± 24.6 ng·h/mL
bioavailability ([5]; male, Sprague Dawley, plasma, 3 mg/kg oral vs 3 mg/kg intravenous mean AUC): 22.2 ± 5.8%
Cmax ([5]; male, Sprague Dawley, plasma, 3 mg/kg oral, mean ± S.D., n=3): 44.4 ± 6 ng/mL
HM04 plasma concentration ([6]; 2 mg/kg oral, 1 hour, mean ± S.D., n=3): 66.33 ± 4.25 ng/mL
HM04 plasma concentration ([6]; 2 mg/kg oral, 4 hours, mean ± S.D., n=3): 67.34 ± 6.27 ng/mL
AUC ([6]; male, Beagle, plasma, 1 mg/kg intravenous, three dogs, read-out: mean AUC following intravenous administration): 782 ± 364 ng·h/mL
concentration at 8 h ([6]; male, Beagle, plasma, po, 2 mg/kg, 2 mg/kg oral, 8 hours, mean ± S.D., n=3): 49.2 ± 10.2 ng/mL
concentration at 24 h ([6]; male, Beagle, plasma, po, 2 mg/kg, 2 mg/kg oral, 24 hours, mean ± S.D., n=3): 6.61 ± 4.38 ng/mL
HM04 plasma concentration ([7]; 0.50 hours, mean ± S.D., n=3): 39.0 ± 5.2 ng/mL
HM04 plasma concentration ([7]; 1 hour, mean ± S.D., n=3): 44.4 ± 6.0 ng/mL
HM04 plasma concentration ([7]; 2 hours, mean ± S.D., n=3): 35.7 ± 11.3 ng/mL
HM04 plasma concentration ([7]; 8 hours, mean ± S.D., n=3): 7.9 ± 5.8 ng/mL
AUC(0-t) [7, 10]: 220 ± 57.2 ng·h/mL
Tmax [7, 10]: 1 h
concentration at 24 hours ([7]; male, Sprague Dawley, plasma, po, 3 mg/kg, 24 hours, N = 1 (two of three animals below level of quantification)): 2.4 ng/mL

ghrelin: growth hormone-releasing peptide, injected i.v. to induce GH increase (GSSFLSPEHQRVQQRKESKKPPAKLQPR; ends and bridges not checked; UniProt Q9UBU3 24-51, looked up) [reference compound]
mean plasma GH concentration [8]: 90 to 120 ng/mL

Source: patent publication US11299472B2, “Fumarate salt of (R)-3-(1-(2,3-dichloro-4-(pyrazin-2-yl)phenyl)-2,2,2- trifluoroethyl)-1-methyl-1-(1-methylpiperidin-4-yl) urea, methods of preparation, and uses thereof” (Helsinn Healthcare SA, priority 2017, dated 2022)
